Test results: patent US20050009858A1, “Imiquimod therapies” (priority 2001, published 2005)
Entries after “also recorded” stand apart in the source; their conditions may differ. Read-outs that look alike come from different tables or passages of the source.

Experiments:
IFN-α and TNF-α [1] = settings: nude mice; topical 1 and 5% cream; cited from earlier work
[2] = system: infantile hemangioma (IH); assay: Clinical cases: topical 5% imiquimod cream in 4 patients with infantile hemangioma; format: in vivo, human
Excerpt: The option of topical 5% imiquimod cream at a frequency of three times per week was offered to the parents of 4 patients with IH. In each case this treatment option was found acceptable by both parents, who fully understood that this was an off label use of the medication.
A child presented for consultation with an IH on the frontal scalp (3.0×2.5 cm) that was noticed and enlarged rapidly.
A child presented with a red-grey bulbous, 4.5 cm in diameter IH on the frontal scalp that appeared and grew rapidly. MRI analysis supported the clinical diagnosis of IH. […] The medication at the parent's request was discontinued. […] Imiquimod was restarted and increased to every other day for 6 weeks. […] Therapy was discontinued.
A healthy infant was born with a small reddish, flat IH over the left lower lip that started to grow rapidly. Imiquimod, 5%, cream was applied every other day to the outer lip area only. […] The patient is […] and continues the treatment.
An infant was born with a IH on the right upper eyelid that grew rapidly during their first few months life. An MRI study excluded any involvement of any underling ocular structure. Topical application of imiquimod 5% cream was applied every other day for one month over the entire IH.

[3] = system: Lichen Sclerosus (LS) lesions; assay: Clinical case: topical imiquimod 5% cream in a patient with penile Lichen Sclerosus; format: in vivo, human; settings: person; for Side effects / local reaction at treated areas: imiquimod 5% cream every other day, reaction after 2 weeks; for Disappearance of LS lesions: imiquimod 5% cream topically every other day for 2 weeks, assessed two weeks after stopping
Excerpt: A person presented to our office (MIM) with the main complaint of whitish patches on the penis of 2 months duration associated with occasional pruritus. […] Because of its immunomodulatory effects, treatment of the LS lesions with imiquimod 5% cream was offered to the patient. It was clearly explained to them that this was an off label use of the medication. They began topical application to the affected areas every other day.

[4] = system: epithelioid hemangioendothelioma (EH); assay: Clinical case: 5% imiquimod topical cream in a patient with epithelioid hemangioendothelioma; format: in vivo, human
Excerpt: EH is a low grade malignant vascular tumor that occurs most commonly in the superficial or deep soft tissues of the body. The patient refused surgery for personal reasons, but acquiesced to the use of 5% imiquimod cream, even though such usage was off label.
A patient developed a nodule on the left cheek that started to grow over the period of 6 months. […] However, they were willing to apply 5% imiquimod topical cream after they were informed of the success of this agent in treatment of some skin cancers and hemangiomas.

IFN-α and TNF-α [5] = settings: rats; topical 1 and 5% cream; cited from earlier work
[6] = system: cytokines including IL-2 and IFN-γ; settings: as a result of IL-12 production; cited from earlier work
[7] = system: polyoma virus-induced hemangioendothelioma; settings: topical imiquimod; cited from earlier work

CC(C)Cn1cnc2c(N)nc3ccccc3c21 [imiquimod]
IFN-α (IFN-α and TNF-α [1]): local increase
TNF-α (IFN-α and TNF-α [1]): local increase
IH lesion response ([2]; Case 1: frontal scalp IH 3.0×2.5 cm, after 4 weeks of thrice weekly application): less protuberant
Side effects ([2]; Case 1, after 4 weeks of thrice weekly application): marked erythema and crusting
IH lesion response ([2]; Case 1, after therapy discontinued for 2 weeks): marked reduction in the size of the IH
Side effects ([2]; Case 1, application every other day for 2 weeks): reappearance of inflammation and crusting
IH lesion response ([2]; Case 1, follow-up 4 weeks after end of therapy): virtually complete clinical regression of the IH with return to normal skin color
Recurrence at follow-up ([2]; Case 1, most recent follow-up): no recurrence of the lesion
Side effects ([2]; Case 2: frontal scalp IH 4.5 cm, after 3 weeks of 3 times weekly): marked crusting and erythema
IH lesion response ([2]; Case 2, four weeks after the 6 week course): near complete regression of the lesion
IH lesion at last follow-up ([2]; Case 2, last follow-up): the lesion had completely disappeared
Side effects ([2]; Case 2, restarted, every other day for 6 weeks): recurrence of erythema and crusting
IH lesion course after discontinuation ([2]; Case 2, two months after medication discontinued): rapid regrowth of the lesion
Side effects ([2]; Case 3: IH left lower lip, 5% cream every other day to outer lip area, after 2 weeks): marked inflammation and crusting over the lip area
IH lesion response, untreated area ([2]; Case 3, inner buccal mucosa (untreated)): persisted but had also decreased in size
IH lesion response, treated area ([2]; Case 3, outer lip area, after one and a half months of therapy): most of the IH over the outer lip area had regressed
Side effects ([2]; Case 4: IH right upper eyelid, 5% cream every other day): Erythema and crusting developed in two weeks
IH lesion response ([2]; Case 4, after one month of application every other day): regressed almost to the skin level
Neurologic examination ([2]; all patients of the report): none showed any adverse effects
Outcome of IH lesions ([2]; the other two patients, treatment continuing): continue to respond dramatically to treatment
Outcome of IH lesions ([2]; the two patients who completed therapy, at least one year of follow up): complete disappearance of their lesions with no recurrence at least at one year of follow up
Side effects / local reaction at treated areas [3]: strong reaction at the treated areas with pruritus, burning and intermittently mild pain; also recorded: erythematous, edematous plaques that were well defined and did not extend onto uninvolved skin
Side effects / local reaction at treated areas ([3]; listed as Imiquimod): minimal side-effects
Disappearance of LS lesions [3]: complete disappearance of the lesions
Disappearance of LS lesions ([3]; listed as Imiquimod): all the lesions of LS that were treated and developed the reaction had disappeared leaving no signs of any cutaneous change
Nodule size ([4]; after 2 weeks of application): decreased remarkably in size
Biopsy histology ([4]; biopsy just before surgery): scarring in the central cleared area and some residual tumor with marked inflammation in the peripheral inflamed rim
Lesion course in the interim before surgery ([4]; interim before surgery): continued to improve in the interim, developing a central cleared area
Side effects ([4]; person, 2.5 cm nodule left cheek, after 2 weeks of application): erythema and crusting
Re-biopsy histology ([4]; re-biopsy after 2 weeks of application): persistent hemangioendothelioma but with mild atypia and marked inflammation and fibrosis
Surgical specimen histology ([4]; surgical specimen): only scarring with no evidence of tumor
IFN-α (IFN-α and TNF-α [5]): local increase
TNF-α (IFN-α and TNF-α [5]): local increase
Cytokine production [6]: production of other cytokines including IL-2 and IFN-γ
Apoptosis [7]: increased apoptosis
Intratumoral mast cells [7]: increased intratumoral mast cells
TNF-α level [7]: elevated levels
Tissue inhibitor of metalloproteinases type 1 (TIMP-1) level [7]: elevated levels
